In brackets after ≈: the same amount, converted by molar mass.
Key:
[1] = system: BRL-3A cells; assay: Cytotoxicity, MTT assay; type: cell-based; conditions: Rattus norvegicus; BRL-3A cells, MTT, 16 h incubation; read-out: 50% inhibition concentration (IC50), cell viability
Procedure: The cytotoxicity of NPDM was evaluated by the MTT assay as previously reported. Briefly, the medium containing 1 × 10^5 BRL-3A cells per 1 mL was seeded into a 96-well plate at 100 μL per well. After incubation for 48 h, media were replaced with 100 μL of serial dilutions of test compounds and incubated for 16 h. The absorbance (A) was measured at 490 nm by an automatic microplate reader (BIO-TEK Instrument Inc., Winooski, VT, USA). The cell viability was calculated according to Equation (1):(1) Cell viability (%) = (Asimple−Anegative)/(Apositive−Anegative)×100%
A graph was constructed by plotting the inhibition percentage versus various concentrations of NPDM and tiamulin, from which the IC50 of NPDM or tiamulin was calculated. The measurement was repeated in triplicate.

[2] = system: MRSA ATCC 43300; assay: MBC assay; type: cell-based, Staphylococcus aureus; conditions: Staphylococcus aureus; MRSA ATCC 43300
Procedure: (§1) Determination of MBCs refers to the minimum concentrations of antibacterial agents required to kill 99.9% of the test microorganisms after 24 h of incubation. After obtaining the MICs value, the 96-well plates were placed at 37 °C and incubated for 24 h. One hundred microliter aliquots of the bacterial suspensions were taken from the wells without visible bacterial growth and then plated onto MHA plates. […] The MBC assay was conducted at least in triplicate.

[3] = system: S. aureus AD3 (clinical strain); assay: MBC assay; type: cell-based; conditions: Staphylococcus aureus
Procedure: as §1

[4] = system: S. aureus 144 (clinical strain); assay: MBC assay; type: cell-based; conditions: Staphylococcus aureus
Procedure: as §1

[5] = system: S. aureus ATCC 29213; assay: MBC assay; type: cell-based; conditions: Staphylococcus aureus, ATCC29213
Procedure: as §1

[6] = system: S. aureus AD3 (clinical strain); assay: MIC, broth dilution micro-method; type: cell-based; conditions: Staphylococcus aureus, 24 h, MHB
Procedure: (§2) The MICs of NPDM against MRSA were determined by the broth dilution micro-method. Briefly, the stock solution of NPDM and the reference drug tiamulin were diluted by a two-fold serial dilution method with MHB in a 96-well plate to provide concentration ranges of 16~0.032 μg/mL. Then 100 μL of bacterial suspensions in log phase were diluted to 10^6 CFU/mL with MHB and were added to each well to make the final concentrations of the test compounds ranging from 8 to 0.016 μg/mL. The bacterial suspension (no drugs but solvent) was used as the positive control and MHB (no cultures) was used as the negative control. […] The MICs assay was carried out in triplicate.

[7] = system: S. aureus 144 (clinical strain); assay: MIC, broth dilution micro-method; type: cell-based; conditions: Staphylococcus aureus, 24 h, MHB
Procedure: as §2

[8] = system: MRSA ATCC 43300; assay: MIC, broth dilution micro-method; type: cell-based; conditions: Staphylococcus aureus, 24 h, MHB
Procedure: as §2

[9] = system: S. aureus ATCC 29213; assay: MIC, broth dilution micro-method; type: cell-based; conditions: Staphylococcus aureus, ATCC29213, 24 h, MHB
Procedure: as §2

[10] = system: MRSA ATCC 43300; assay: Galleria mellonella infection model; type: in vivo; conditions: Staphylococcus aureus, 120 h; Galleria mellonella larvae infected with MRSA, survival over 5 days
Procedure: The survival rate of Galleria mellonella was determined according to the literature with some modifications. Larvae of Galleria mellonella (16 per group) were injected with 10 μL of 10^8 CFU/mL MRSA inoculum into the last right proleg. Two hours after infection, larvae were injected with 10 μL of various doses (17.14, 25.71, 37.14, 57.14, and 85.71 mg/kg) of NPDM or tiamulin (used as reference drug) into the last left proleg. The larvae were maintained at 37 °C. Survival of the larvae was recorded daily for 5 days, and the ED50 was calculated.

[11] = system: MRSA ATCC 43300; assay: Post-antibiotic effect (PAE) assay; type: cell-based, Staphylococcus aureus
Procedure: The PAE was carried out as described in the literature. The MRSA was diluted to 10^6 CFU/mL in MHB. The NPDM or tiamulin was added into the bacteria solution at the final concentrations of 2 × MIC and 4 × MIC. Then all tubes were incubated at 37 °C for 1 h or 2 h. Each of the above inoculums was diluted 1000-fold with pre-warmed MHB to remove the test compounds and placed in a water bath at 37 °C immediately. One hundred microliters of suspension were taken from each culture, diluted 10-fold in sterile saline, and inoculated on MHA plates at 0, 1, 2, 4, and 6 h after inoculation. The total number comprising the colonies was counted after incubation at 37 °C for 20 h. The PAE was calculated referring to published methods. The experiment was performed in triplicate.

[12] = system: MRSA ATCC 43300; assay: Time-kill assay; type: cell-based, Staphylococcus aureus
Procedure: (§3) The MRSA and S. aureus in the logarithmic phase were diluted to 10^6 CFU/mL with MHB. Then diverse concentrations of NPDM or tiamulin were added to the bacteria solution reaching the final concentration of 1 × MIC, 2 × MIC, 4 × MIC, and 8 × MIC, respectively. All bacterial inoculums were cultured at 37 °C with shaking. A total of 100 μL samples were taken from the subcultures at 0, 3, 6, 9, and 24 h, respectively, and continuously diluted 10-fold in sterile saline; then, 25 μL diluent was plated on the MHA plate. All plates were placed at 37 °C for 24 h. The total number of colonies on the plate was counted, and the results were expressed as log (CFU/mL).

[13] = system: S. aureus ATCC 29213; assay: Time-kill assay; type: cell-based, Staphylococcus aureus
Procedure: as §3

[14] = system: MRSA ATCC 43300; assay: Neutropenic mouse thigh infection model; type: in vivo, Staphylococcus aureus; conditions: 20 mg/kg i.v., neutropenic mice
Procedure: (§4) The mouse thigh infection model was performed as described in the literature with minor modifications. Briefly, female mice had induced neutropenia (neutrophil count ≤ 100/mm^3) by administered intraperitoneally cyclophosphamide on day 4 (150 mg/kg) and day 1 (100 mg/kg) before the experiment. A bacterial suspension of 0.1 mL (MRSA or S. aureus) containing approximately 10^7 CFU/mL microorganism was injected into the posterior thigh of mice to establish infection. Two hours after infection, mice were intravenously injected with NPDM or tiamulin at 20 mg/kg. After 24 h, thighs (six per group) were collected upon euthanasia. Then, thighs were weighed and homogenized with sterile saline. Tissue homogenate was continuously diluted 10-fold and plated on MHA plates for colony counts. SPSS 19 software was used for statistical analysis and t-tests.

[15] = system: S. aureus ATCC 29213; assay: Neutropenic mouse thigh infection model; type: in vivo, Staphylococcus aureus; conditions: 20 mg/kg i.v., neutropenic mice
Procedure: as §4

MIC [6]: 0.5 µg/mL (≈ 1.01 µM)
MIC [7]: 0.5 µg/mL (≈ 1.01 µM)
MIC [8]: 0.5 µg/mL (≈ 1.01 µM)
MIC [9]: 0.5 µg/mL (≈ 1.01 µM)
Structure (SMILES): C=C[C@]1(C)C[C@@H](OC(=O)CSCCN(CC)CC)[C@]2(C)[C@H](C)CC[C@]3(CCC(=O)[C@H]32)[C@@H](C)[C@@H]1O [Tiamulin, reference compound]
IC50 [1]: 13.1 µg/mL (≈ 26.5 µM)
MBC [2]: 0.5 µg/mL (≈ 1.01 µM)
MBC [3]: 2 µg/mL (≈ 4.05 µM)
MBC [4]: 2 µg/mL (≈ 4.05 µM)
MBC [5]: 0.5 µg/mL (≈ 1.01 µM)
ED50 [10]: 75.7 mg/kg
PAE ([11]; 2 × MIC, exposure for 1 h): 1.53 h
PAE ([11]; 2 × MIC, exposure for 2 h): 1.65 h
PAE ([11]; 4 × MIC, exposure for 1 h): 1.90 h
PAE ([11]; 4 × MIC, exposure for 2 h): 2.04 h
Time-kill activity at 2 × MIC ([12]; 2 × MIC): bacteriostatic activity with a rebound growth
Concentration showing bactericidal activity (≥3 log10 CFU/mL decrease) ([12]; after incubation for 24 h): ≥ 4 × MIC
Concentration showing bacteriostatic effect [13]: ≥ 2 × MIC
Reduction of mean MRSA counts in thighs vs untreated group ([14]; 24 h): ~ 1.15 log CFU/mL
Average amount of MRSA inoculum in thighs ([14]; 24 h after treatment): (2.64 ± 1.95) × 10^8 CFU
Average amount of S. aureus inoculum in thighs ([15]; 24 h after treatment): (2.00 ± 1.21) × 10^8 CFU
Reduction of mean bacterial counts in thighs vs untreated group ([15]; S. aureus, 24 h): ~ 0.68 log CFU/mL

Reference: paper PMC8227856, “Antibacterial Activity of a Promising Antibacterial Agent: 22-(4-(2-(4-Nitrophenyl-piperazin-1-yl)-acetyl)-piperazin-1-yl)-22-deoxypleuromutilin” (Molecules, 2021)
